What was measured:
[1] = molecular target: Tyrosine-protein kinase Lck (Homo sapiens, UniProt P06239); test: DRUGMATRIX: Protein Tyrosine Kinase, LCK enzyme inhibition (substrate: Poly(Glu:Tyr)); type: cell-based, Insect cells; details: insect cells; Not Active = under 50% inhibition at 10 µM
[2] = DRUGMATRIX: Glutamate, NMDA, Phencyclidine radioligand binding (ligand: [3H] TCP); type: cell membranes, Rattus norvegicus, Wistar, Cerebral cortex, Membrane; details: Not Active = under 50% inhibition at 10 µM
[3] = DRUGMATRIX: Calcium Channel Type L, Benzothiazepine radioligand binding (ligand: [3H] Diltiazem); type: cell membranes, Rattus norvegicus, Wistar, Brain, Membrane; details: Not Active = under 50% inhibition at 10 µM
[4] = molecular target: T1, Leukotriene C4 synthase (Cavia porcellus, UniProt A6XA80); type: tissue-based, Lung;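 note: enzyme inhibition assay of leukotriene C4 synthase, using LTA4 as the substrate; in other assays of this panel Not Active means under 50% inhibition at 10 µM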
T1 sequence (A6XA80 whole entry): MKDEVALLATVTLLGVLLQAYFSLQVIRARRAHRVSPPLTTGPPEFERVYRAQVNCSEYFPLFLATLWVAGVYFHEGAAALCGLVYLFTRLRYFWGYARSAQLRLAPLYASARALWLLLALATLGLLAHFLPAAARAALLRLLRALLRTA

[5] = molecular target: T2, Alpha-2A adrenergic receptor (Homo sapiens, UniProt P08913); type: cell membranes, Sf9, Membrane; details: sf9; note: in other assays of this panel Not Active means under 50% inhibition at 10 µM
T2 sequence (P08913 whole entry): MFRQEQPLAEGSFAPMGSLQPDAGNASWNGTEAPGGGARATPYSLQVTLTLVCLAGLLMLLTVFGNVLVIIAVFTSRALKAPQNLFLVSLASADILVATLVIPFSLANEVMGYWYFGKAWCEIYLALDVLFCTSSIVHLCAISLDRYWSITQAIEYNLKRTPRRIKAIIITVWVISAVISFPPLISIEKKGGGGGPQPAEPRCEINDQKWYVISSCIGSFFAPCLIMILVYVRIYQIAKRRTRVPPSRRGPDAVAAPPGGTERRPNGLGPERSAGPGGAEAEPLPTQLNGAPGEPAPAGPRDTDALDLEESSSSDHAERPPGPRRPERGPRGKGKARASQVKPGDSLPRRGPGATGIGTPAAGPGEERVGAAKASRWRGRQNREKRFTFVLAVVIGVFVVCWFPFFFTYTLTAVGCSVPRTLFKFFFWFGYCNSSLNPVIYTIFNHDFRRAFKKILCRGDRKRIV

[6] = molecular target: T3, C-X-C chemokine receptor type 2 (Homo sapiens, UniProt P25025); type: cell membranes, Membrane; details: cho-k1; note: in other assays of this panel Not Active means under 50% inhibition at 10 µM
T3 sequence (P25025 whole entry): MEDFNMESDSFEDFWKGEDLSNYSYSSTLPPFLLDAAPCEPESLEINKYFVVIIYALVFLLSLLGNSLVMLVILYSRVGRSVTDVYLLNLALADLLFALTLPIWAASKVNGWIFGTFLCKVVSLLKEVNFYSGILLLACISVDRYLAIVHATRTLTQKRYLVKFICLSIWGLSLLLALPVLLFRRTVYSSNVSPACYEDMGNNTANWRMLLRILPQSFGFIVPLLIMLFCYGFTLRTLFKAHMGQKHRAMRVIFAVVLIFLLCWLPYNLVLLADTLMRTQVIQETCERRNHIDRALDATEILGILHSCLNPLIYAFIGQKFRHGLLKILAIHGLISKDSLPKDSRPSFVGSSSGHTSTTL

[7] = molecular target: Protein phosphatase 3 catalytic subunit alpha (Homo sapiens, UniProt Q08209); design: species or system Escherichia coli;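 note: inhibition of calcineurin (PP2B) enzyme activity, measured with DiFMUP as the substrate; in other assays of this panel Not Active means under 50% inhibition at 10 µM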
[8] = molecular target: Platelet-activating factor receptor (Homo sapiens, UniProt P25105); type: tissue-based; note: in other assays of this panel Not Active means under 50% inhibition at 10 µM
Sequence of Platelet-activating factor receptor (P25105 whole entry): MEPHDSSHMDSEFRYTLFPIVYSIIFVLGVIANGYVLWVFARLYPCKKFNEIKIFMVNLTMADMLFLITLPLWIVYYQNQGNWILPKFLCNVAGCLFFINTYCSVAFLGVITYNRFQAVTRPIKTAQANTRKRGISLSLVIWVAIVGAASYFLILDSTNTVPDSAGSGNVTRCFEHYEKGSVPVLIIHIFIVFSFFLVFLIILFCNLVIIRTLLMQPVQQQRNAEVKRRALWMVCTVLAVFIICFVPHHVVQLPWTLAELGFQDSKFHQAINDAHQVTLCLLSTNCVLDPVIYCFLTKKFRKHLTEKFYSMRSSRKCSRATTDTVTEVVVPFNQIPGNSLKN

[9] = molecular target: Cytochrome P450 3A4 (Homo sapiens, UniProt P08684); details: bti-tn-5b1-4; note: in other assays of this panel Not Active means under 50% inhibition at 10 µM
Sequence of Cytochrome P450 3A4 (P08684 whole entry): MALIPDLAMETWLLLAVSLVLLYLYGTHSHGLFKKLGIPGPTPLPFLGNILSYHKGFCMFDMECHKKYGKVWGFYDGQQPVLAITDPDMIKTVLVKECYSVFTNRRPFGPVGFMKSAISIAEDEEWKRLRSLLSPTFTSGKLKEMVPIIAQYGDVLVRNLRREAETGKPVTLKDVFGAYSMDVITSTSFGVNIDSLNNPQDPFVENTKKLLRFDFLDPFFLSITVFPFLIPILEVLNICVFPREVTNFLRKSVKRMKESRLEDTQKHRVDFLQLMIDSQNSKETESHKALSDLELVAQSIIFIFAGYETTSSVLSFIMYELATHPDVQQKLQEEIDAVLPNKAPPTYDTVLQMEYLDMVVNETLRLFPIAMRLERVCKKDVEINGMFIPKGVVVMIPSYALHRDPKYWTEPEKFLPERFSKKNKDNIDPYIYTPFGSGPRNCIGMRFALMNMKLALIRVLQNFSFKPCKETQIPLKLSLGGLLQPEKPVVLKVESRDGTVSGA

[10] = molecular target: Sodium-dependent dopamine transporter (Homo sapiens, UniProt Q01959); test: DRUGMATRIX: Dopamine Transporter radioligand binding (ligand: [125I] RTI-55); type: cell membranes, CHO-K1, Membrane; details: cho-k1; Not Active = under 50% inhibition at 10 µM
Sequence of Sodium-dependent dopamine transporter (Q01959 whole entry): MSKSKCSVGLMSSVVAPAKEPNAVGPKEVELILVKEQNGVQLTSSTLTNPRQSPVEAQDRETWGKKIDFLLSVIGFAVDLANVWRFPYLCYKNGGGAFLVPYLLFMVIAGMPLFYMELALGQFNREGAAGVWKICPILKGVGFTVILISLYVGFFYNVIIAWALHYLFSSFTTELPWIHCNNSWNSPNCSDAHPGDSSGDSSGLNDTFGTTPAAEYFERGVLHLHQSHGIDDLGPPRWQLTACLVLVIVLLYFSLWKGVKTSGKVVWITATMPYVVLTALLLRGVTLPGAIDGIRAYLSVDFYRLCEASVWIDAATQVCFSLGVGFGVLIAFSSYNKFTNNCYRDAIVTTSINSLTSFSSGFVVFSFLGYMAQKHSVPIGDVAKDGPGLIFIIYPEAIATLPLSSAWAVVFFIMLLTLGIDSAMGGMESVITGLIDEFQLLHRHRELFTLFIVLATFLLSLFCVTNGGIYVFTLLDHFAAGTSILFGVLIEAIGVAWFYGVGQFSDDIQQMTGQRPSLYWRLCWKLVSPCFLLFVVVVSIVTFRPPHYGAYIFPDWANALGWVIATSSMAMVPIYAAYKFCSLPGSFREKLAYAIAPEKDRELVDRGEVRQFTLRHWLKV

Sequence of Tyrosine-protein kinase Lck (P06239 whole entry): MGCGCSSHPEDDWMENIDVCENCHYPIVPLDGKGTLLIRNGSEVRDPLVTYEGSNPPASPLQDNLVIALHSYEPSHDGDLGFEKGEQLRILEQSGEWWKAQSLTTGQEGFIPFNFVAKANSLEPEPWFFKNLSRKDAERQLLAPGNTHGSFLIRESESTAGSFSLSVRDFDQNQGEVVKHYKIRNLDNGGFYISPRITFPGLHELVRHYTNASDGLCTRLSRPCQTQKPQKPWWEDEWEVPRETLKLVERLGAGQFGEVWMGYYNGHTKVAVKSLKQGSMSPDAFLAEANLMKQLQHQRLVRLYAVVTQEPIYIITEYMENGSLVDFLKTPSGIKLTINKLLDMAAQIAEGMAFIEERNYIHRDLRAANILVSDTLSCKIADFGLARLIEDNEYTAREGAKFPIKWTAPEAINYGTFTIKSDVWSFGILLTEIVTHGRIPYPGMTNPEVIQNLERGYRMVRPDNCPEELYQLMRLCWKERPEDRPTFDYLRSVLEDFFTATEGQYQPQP

## CC[C@]1(O)C[C@@H]2CN(CCc3c([nH]c4ccccc34)[C@@](C(=O)OC)(c3cc4c(cc3OC)N(C)[C@H]3[C@@](O)(C(=O)OC)[C@H](OC(C)=O)[C@]5(CC)C=CCN6CC[C@]43[C@@H]65)C2)C1 [VINBLASTINE]
[1]
  IC50: Not Active
[2]
  IC50: Not Active
  Ki: Not Active
[3]
  IC50: Not Active
  Ki: Not Active
[4]
  IC50: Not Active
[5]
  IC50: Not Active
[6]
  IC50: Not Active
[7]
  IC50: Not Active
[8]
  IC50: Not Active
[9]
  IC50: Not Active
  Ki: Not Active
[10]
  IC50: Not Active

## CC(=O)CC(c1ccccc1)c1c(O)c2ccccc2oc1=O (centres undefined) [WARFARIN]
[1]
  IC50: Not Active
[2]
  IC50: Not Active
  Ki: Not Active
[3]
  IC50: Not Active
  Ki: Not Active
[4]
  IC50: Not Active
[5]
  IC50: Not Active
[6]
  IC50: Not Active
[7]
  IC50: Not Active
[8]
  IC50: Not Active
[9]
  IC50: Not Active
  Ki: Not Active
[10]
  IC50: Not Active

## [Cl-].[Cl-].[Zn+2] [ZINC CHLORIDE]
[1]
  IC50: Not Active
[2]
  IC50: Not Active
  Ki: Not Active
[3]
  IC50: Not Active
  Ki: Not Active
[4]
  IC50: Not Active
[5]
  IC50: Not Active
[6]
  IC50: Not Active
[7]; read-out: IC50
  IC50: 1100 nM
[8]
  IC50: Not Active
[9]
  IC50: Not Active
  Ki: Not Active
[10]
  IC50: Not Active
